These results are taken from US20100008894A1, “Process of Screening a Molecule as a Candidate Drug for the Treatment of Bipolar Disorder” (Institute pasteur, priority 2005, published 2010).

The target of assay [1] is T1, CysQ (Escherichia coli, UniProt P22255).
T1 construct: made in house; host or cells: E. coli MG1655 carrying pUM404, arabinose-induced
The assay is classed as biochemical, E. coli.

The target of assay [2] is T1, CysQ. Briefly: pAp/AMP-binding assay with recombinant CysQ. Further details: species or system E. coli. The conditions noted are these: 15 μg protein, 5 μl agarose. The procedure: (§1) 30 μl samples containing 15 μg of Orn-His or CysQ-His in pAp-agarose buffer containing 100 mM NaCl were incubated with 5 μl of prewashed pAp- or AMP-agarose by rotating for 1 hour at 4° C. in durapore spin columns (Millipore). Beads were removed by centrifugation, and 5 μl of the unbound fraction, designated flow through was measured for protein content using Bio-Rad protein assay. The fraction bound to the beads was eluted by the addition of 40 μl of hot SDS-sample buffer and incubation for 15 minutes at 65° C.
(§2) Orn is an essential protein in E. coli involved in mRNA degradation. It has 3′ to 5′ exoribonuclease activity selectively active on short ribonucleotides. 5′adenosine monophosphate (AMP) is known to inhibit Orn (Datta & Niyogi, 1975). It was therefore important to compare binding of Orn to AMP and pAp. To this end recombinant Orn has been purified and its binding was measured to equal amounts of pAp- or AMP-agarose, both affinity substrates with identical binding capacities, CysQ was included as a positive control. Similar experiments were done with cell free extracts from strains overexpressing Orn or CysQ. […] Furthermore, significant amounts of Orn, roughly one third, but not CysQ bind to AMP-agarose. […]

In assay [3] the target is T2, Orn (Escherichia coli, UniProt P0A784).
T2 construct: made in house; host or cells: E. coli MG1655 carrying pUM408, arabinose-induced
The assay is described as follows: pAp/AMP-binding assay with recombinant Orn. Further details: species or system E. coli. Particulars: 15 μg protein, 5 μl agarose. The protocol:
as §1, §2

For assay [4], the target named is T2, Orn. The assay is described as follows: Orn activity assay (degradation of RNA-oligo 5mer). In kind it is biochemical, E. coli. The conditions noted are these: 10 μM inhibitor; 3 μM 5′Cy5-CCCCC3′ RNA. The procedure: Custome made RNA-oligo 5mers (5′Cy5-CCCCC3′), obtained from Proligo, were used as substrate for in vitro activity assays. 30 μl reactions containing 50 mM HEPES pH 7.5, 5 mM MnCl2, 3 μM substrate RNA and 0.1 μg oligoribonuclease were incubated at 37° C., and reactions were initiated by adding substrate. Inhibitors were added as indicated in the text. At intervals, 5 μl reaction aliquots were taken and stopped by adding an equal volume of sample buffer (95% formamide, 20 mM EDTA, 0.1% bromphenol blue) and frozen at −20° C. For analysis of the reaction products, samples were heated at 80° C. for 3 minutes and 2.5 μl was applied to PAGE on a 22% SDS-PAA gel containing 2×TBE and run in 2×TBE. Fluorescent RNA oligos were visualized using a Molecular Dynamics STORM 860 in 650-nm long-pass filter mode.
Given the strong affinity of Orn for pAp, it was investigated whether pAp affects Orn activity. […] Those small RNA-oligos are called here nanoRNAs, in order to distinguish them from microRNAs, which have become a subject of extensive studies in the last several years. RNA-oligo 5-mers (5′-CCCCC-3′) labeled at their 5′-phosphate end with the sulfoindocyanine succinimidyl ester cyanine 5 (Cy5) were therefore used as substrate for in vitro assays with purified recombinant Orn. […]

The next assay deals with NM23-H2 (Homo sapiens, UniProt P22392). Particulars: cited from earlier work.
Assay [5] addresses T3, Sfn (Homo sapiens, UniProt Q9Y3B8).
T3 construct: His tag; made in house
T3 sequence (Q9Y3B8 26-237): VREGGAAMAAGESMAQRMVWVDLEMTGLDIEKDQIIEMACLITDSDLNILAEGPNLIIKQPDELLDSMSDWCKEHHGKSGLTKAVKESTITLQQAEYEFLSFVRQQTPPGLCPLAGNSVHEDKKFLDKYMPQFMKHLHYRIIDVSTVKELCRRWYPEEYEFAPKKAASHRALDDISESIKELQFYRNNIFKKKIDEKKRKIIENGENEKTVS
The assay is described as follows: Sfn-catalyzed degradation of oligo RNA. The assay is classed as biochemical. The protocol: FIG. 9: Sensitivity of Sfn-catalyzed degradation of oligo RNA to pAp. Shown is the quantification of the distribution of reaction products that were separated on 22% PAA gels. Reactions included 0.5 μg Sfn and 3 μM of RNA oligo 5mer (5′Cy5-CCCCC3′). Reactions were started by the addition of enzyme. 20 μM or 50 μM pAp was present where indicated. Closed circle: 5mer, open circle: 4mer, closed triangle: 3mer, open triangle: 2mer, square: 1mer.
The term nanoRNA has been introduced to describe these extremely short RNA oligos. The Inventors have purified His-tagged Sfn in order to evaluate its sensitivity to pAp in-vitro. Inhibition of Sfn-catalyzed degradation of nanoRNA was tested at two concentrations of the inhibitor, 20 and 50 μM.

The target of assay [6] is T3, Sfn. Briefly: Sfn-catalyzed degradation of oligo DNA. In kind it is biochemical. Particulars: 50 μM pAp; DNA oligo 5mer. The protocol: FIG. 10: Sensitivity of Sfn-catalyzed degradation of oligo DNA to pAp. Shown is the quantification of the distribution of reaction products that were separated on 22% PAA gels. Reactions included 3 μg Sfn and 3 μM of DNA oligo 5mer (5′Cy5-CCCCC3′). Reactions were started by the addition of enzyme. 50 μM pAp was present where indicated. Closed circle: 5mer, open circle: 4mer, closed triangle: 3mer, open triangle: 2mer. Monomers could not be included into this calculation due to their inability to enter the gel.

Another assay has as its target T4, PARP (Homo sapiens, UniProt P09874).
T4 construct: purchased Trevigen
The assay is described as follows: Colorimetric PARP assay from Trevigen. Particulars: 1 μM pAp, in vitro. The assay is classed as biochemical. An excerpt: The Inventors plan to verify this effect using an independent method, as they are not certain the effect that can be observed with the kit they used for this experiment (Colorimetric PARP assay from Trevigen) is independent of the nature of the inhibitor, as it seems that the phenomenon of self-inhibition of PARP due to auto modification has an important impact on the result. They plan therefore to measure PARP activity in-vitro in the presence or absence of pAp according to J. C. Ame using ^32P-NAD.

T2 sequence (P0A784 whole entry): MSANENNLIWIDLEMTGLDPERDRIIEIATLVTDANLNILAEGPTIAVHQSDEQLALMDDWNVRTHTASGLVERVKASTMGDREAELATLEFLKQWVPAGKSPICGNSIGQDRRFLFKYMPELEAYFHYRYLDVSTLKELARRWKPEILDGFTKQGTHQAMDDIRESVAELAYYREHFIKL
T1 sequence (P22255 whole entry): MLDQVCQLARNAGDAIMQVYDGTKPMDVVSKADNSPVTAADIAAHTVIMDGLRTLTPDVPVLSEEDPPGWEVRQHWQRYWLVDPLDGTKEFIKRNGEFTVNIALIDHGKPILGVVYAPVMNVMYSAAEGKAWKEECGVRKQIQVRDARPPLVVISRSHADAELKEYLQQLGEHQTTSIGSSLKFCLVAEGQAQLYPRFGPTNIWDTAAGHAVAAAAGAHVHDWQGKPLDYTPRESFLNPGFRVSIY
NM23-H2, sequence (P22392 whole entry): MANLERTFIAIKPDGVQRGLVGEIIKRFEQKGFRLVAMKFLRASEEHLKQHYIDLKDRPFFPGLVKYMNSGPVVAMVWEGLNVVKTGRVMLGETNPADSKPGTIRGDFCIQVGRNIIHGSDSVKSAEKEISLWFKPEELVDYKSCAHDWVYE
T4 sequence (P09874 whole entry): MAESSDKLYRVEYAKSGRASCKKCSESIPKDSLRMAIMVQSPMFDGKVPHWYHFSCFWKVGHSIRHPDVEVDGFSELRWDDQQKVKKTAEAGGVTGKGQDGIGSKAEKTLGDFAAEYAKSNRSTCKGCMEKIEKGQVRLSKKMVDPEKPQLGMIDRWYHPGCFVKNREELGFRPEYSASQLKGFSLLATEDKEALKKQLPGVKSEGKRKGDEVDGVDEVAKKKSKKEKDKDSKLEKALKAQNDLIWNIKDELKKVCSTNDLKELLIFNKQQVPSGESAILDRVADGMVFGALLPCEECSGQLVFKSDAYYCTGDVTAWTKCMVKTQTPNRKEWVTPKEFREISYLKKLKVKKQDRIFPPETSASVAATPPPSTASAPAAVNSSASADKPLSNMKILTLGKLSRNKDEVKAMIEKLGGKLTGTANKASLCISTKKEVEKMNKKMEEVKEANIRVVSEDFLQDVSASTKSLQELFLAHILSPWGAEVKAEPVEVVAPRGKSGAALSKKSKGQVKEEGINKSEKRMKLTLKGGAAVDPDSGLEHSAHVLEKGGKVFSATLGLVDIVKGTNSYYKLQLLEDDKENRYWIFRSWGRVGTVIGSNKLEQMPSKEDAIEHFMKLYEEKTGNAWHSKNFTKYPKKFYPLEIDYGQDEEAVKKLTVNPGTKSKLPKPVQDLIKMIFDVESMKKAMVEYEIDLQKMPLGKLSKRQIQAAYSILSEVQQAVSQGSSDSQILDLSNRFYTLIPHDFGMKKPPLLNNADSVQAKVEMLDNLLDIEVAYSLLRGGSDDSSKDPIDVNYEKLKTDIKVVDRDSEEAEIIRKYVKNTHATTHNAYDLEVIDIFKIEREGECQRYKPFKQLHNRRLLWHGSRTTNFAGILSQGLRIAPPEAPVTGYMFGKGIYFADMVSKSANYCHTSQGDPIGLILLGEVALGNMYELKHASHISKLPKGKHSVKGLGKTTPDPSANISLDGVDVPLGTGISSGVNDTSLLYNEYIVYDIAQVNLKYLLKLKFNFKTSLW

As to `[Ca+2].[Cl-].[Cl-]` [CaCl2], the “inhibition of CysQ” value at CysQ [1] (2 mM CaCl2, in the presence of 200 mM NaCl) is “complete inhibition”.

`[Cl-].[Na+]` [sodium, NaCl]: the “inhibition of CysQ by sodium” value against CysQ [1] (physiological concentrations, 200 mM NaCl) is reported as “not inhibitory”.

Take `Nc1ncnc2c1ncn2[C@@H]1O[C@H](COP(=O)(O)O)[C@@H](O)[C@H]1O` [AMP, 5′adenosine monophosphate]: the “binding of CysQ to nucleotide-agarose” value on CysQ [2] is given as “not”. In addition, at Orn [3], the “binding of Orn to nucleotide-agarose” value is reported as “roughly one third”. Besides, at Orn [4], the “inhibition of degradation of nanoRNA by Orn” value is reported as “inhibiting”.

As for `Nc1ncnc2c1ncn2[C@@H]1O[C@H](COP(=O)(O)OP(=O)(O)OP(=O)(O)O)[C@@H](O)[C@H]1O` [ATP], the “inhibition of the cleavage reaction” value on NM23-H2 (0.5 mM) is given as 50%.

Turning to `Nc1ncnc2c1ncn2[C@@H]1O[C@H](COP(=O)(O)O)[C@@H](OP(=O)(O)O)[C@H]1O` [pAp, 3′-phosphoadenosine 5′-phosphate], the “binding of CysQ to nucleotide-agarose” value on CysQ [2] is given as “almost quantitatively”. For the same compound, the “inhibition of Sfn-catalyzed degradation of nanoRNA” value against Sfn [5] (20 μM pAp) is on record as “Significant inhibition”; on Sfn [5] (50 μM pAp), “increasing inhibition”. Further, the “sensitivity of Sfn-catalyzed degradation of DNA oligos” value at Sfn [6] was “highly sensitive”. Further, the “binding of Orn to nucleotide-agarose” value on Orn [3] is listed as “almost quantitatively”. For the same compound, the PARP activity on PARP came to 60%. The “inhibition of degradation of nanoRNA by Orn” value on Orn [4] is “significantly more pronounced”.

On to `Nc1ncnc2c1ncn2[C@@H]1O[C@H](COP(=O)(O)OP(=O)(O)O)[C@@H](O)[C@H]1O` [ADP], for which the “inhibition of the cleavage reaction (yes/no)” value at NM23-H2 was “not”.
